Test results published in patent US11464770B2, “Anticancer pharmaceutical composition” (NATIONAL CANCER CENTER, priority 2016, dated 2022).
Read-outs that look alike come from different tables or passages of the source.

Assays:
[1] = test system: blood cancer cell lines (e.g. HL-60, Jurkat, Raji, Ramos, Daudi, MOLT-4); test: Cell based assay, cell viability (CellTiter-Glo), blood cancer cell lines; conditions: Homo sapiens
In short: (§1)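 72-hour continuous compound exposure, 0 to 2 μM final, begun one day after seeding; endpoint is ATP-based luminescent viability.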

melanoma cell lines = test: Cell based assay, cell viability (CellTiter-Glo), melanoma cell lines; conditions: Homo sapiens; LOX-IMVI cell line
In short: as §1

brain cancer cell lines = test: Cell based assay, cell viability (CellTiter-Glo), brain cancer cell lines; conditions: Homo sapiens
[2] = test system: lung cancer cell lines (e.g. NCI-H23, NCI-H1229); test: Cell based assay, cell viability (CellTiter-Glo), lung cancer cell lines; conditions: Homo sapiens, 72 hours treatment, CellTiter-Glo
In short: as §1

[3] = MV4-11, blood cancer cell line MV-4-11, 72 hours, read-out: IC50, MV-4-11
[4] = blood cancer cell line Daudi, 72 hours, read-out: IC50, Daudi
[5] = blood cancer cell line HL-60, 72 hours, read-out: IC50, HL-60
[6] = blood cancer cell line Jurkat, 72 hours, read-out: IC50, Jurkat
[7] = blood cancer cell line MOLT-4, 72 hours, read-out: IC50, MOLT-4
[8] = blood cancer cell line Raji, 72 hours, read-out: IC50, Raji
[9] = blood cancer cell line Ramos (RA 1), 72 hours, read-out: IC50, Ramos (RA 1)
[10] = blood cancer cell line U-937, 72 hours, read-out: IC50, U-937
[11] = U138-MG, U-138 MG cell line, read-out: IC50, Brain cancer cell line U-138 MG
[12] = T98G cell line, read-out: IC50, Brain cancer cell line T98G
[13] = U-251 MG cell line, read-out: IC50, Brain cancer cell line U-251 MG
[14] = A549 cells, read-out: IC50, lung cancer cell line A549
[15] = DMS 114 cells, read-out: IC50, lung cancer cell line DMS 114
[16] = NCI-H23 cells, read-out: IC50, lung cancer cell line NCI-H23
[17] = NCI-H460 cells, read-out: IC50, lung cancer cell line NCI-H460
[18] = NCI-H522 cells, read-out: IC50, lung cancer cell line NCI-H522
[19] = NCI-H1299 cells, read-out: IC50, lung cancer cell line NCI-H1299
[20] = NCI-H1437 cells, read-out: IC50, lung cancer cell line NCI-H1437

IC50 [1, 3] | IC50 [1, 4] | IC50 [1, 5] | IC50 [1, 6] | IC50 [1, 7] | IC50 [1, 8] | IC50 [1, 9] | IC50 [1, 10] | IC50 (melanoma cell lines) | IC50 (brain cancer cell lines; [11]) | IC50 (brain cancer cell lines; [12]) | IC50 (brain cancer cell lines; [13]) | IC50 [2, 14] | IC50 [2, 15] | IC50 [2, 16] | IC50 [2, 17] | IC50 [2, 18] | IC50 [2, 19] | IC50 [2, 20] | SMILES | IC50 ([2]; MRC-5 cells, read-out: IC50)
> 2000 nM | > 2000 nM | > 2000 nM | 1300 nM | 1470 nM | > 2000 nM | > 2000 nM | > 2000 nM | 1620 nM | > 2000 nM | > 10000 nM | > 2000 nM | > 2000 nM | > 2000 nM | 1280 nM | > 2000 nM | > 2000 nM | > 2000 nM | > 10000 nM | COc1cccc(C[S+]([O-])c2[nH]c3c(Br)ccc(Cl)c3c(=O)c2C(C)=O)c1 (centres unmarked) [Compound 55, 3-acetyl-8-bromo-5-chloro-2-((3-methoxybenzyl)sulfinyl)quinolin-4(1H)-one] | > 2000 nM
> 2000 nM | > 2000 nM | > 2000 nM | 1270 nM | 1630 nM | > 2000 nM | > 2000 nM | > 2000 nM | 1670 nM | > 2000 nM | > 10000 nM | > 2000 nM | > 2000 nM | > 2000 nM | 1370 nM | > 2000 nM | > 2000 nM | > 2000 nM | > 10000 nM | CC(=O)c1c([S+]([O-])Cc2ccc(C(C)(C)C)cc2)[nH]c2c(Br)ccc(Cl)c2c1=O (centres unmarked) [Compound 60, 3-acetyl-8-bromo-2-((4-(tert-butyl)benzyl)sulfinyl)-5-chloroquinolin-4(1H)-one] | > 2000 nM
1120 nM | > 2000 nM | 1500 nM | 1070 nM | 1460 nM | 1090 nM | 1850 nM | > 2000 nM | 1050 nM | 1430 nM | > 10000 nM | > 2000 nM | > 2000 nM | > 2000 nM | 980 nM | > 2000 nM | > 2000 nM | 1350 nM | > 10000 nM | CC(=O)c1c([S+]([O-])Cc2ccc([S+]([O-])C(F)(F)F)cc2)[nH]c2c(Br)ccc(Cl)c2c1=O (centres unmarked) [Compound 64, 3-acetyl-8-bromo-5-chloro-2-((4-((trifluoromethyl)sulfinyl)benzyl)sulfinyl)quinolin-4(1H)-one] | > 2000 nM
1340 nM | > 2000 nM | 1980 nM | > 2000 nM | 1710 nM | > 2000 nM | > 2000 nM | > 2000 nM | 1260 nM | 1440 nM | > 10000 nM | > 2000 nM | > 2000 nM | > 2000 nM | 1080 nM | > 2000 nM | > 2000 nM | 1420 nM | > 10000 nM | CC(=O)c1c([S+]([O-])Cc2c(F)cccc2Cl)[nH]c2c(Br)ccc(Cl)c2c1=O (centres unmarked) [Compound 74, 3-acetyl-8-bromo-5-chloro-2-((2-chloro-6-fluorobenzyl)sulfinyl)quinolin-4(1H)-one] | > 2000 nM
> 2000 nM | > 2000 nM | > 2000 nM | > 2000 nM | > 2000 nM | > 2000 nM | > 2000 nM | > 2000 nM | 1570 nM | > 2000 nM | > 10000 nM | > 2000 nM | > 2000 nM | > 2000 nM | 1270 nM | > 2000 nM | > 2000 nM | 1870 nM | > 10000 nM | CC(=O)c1c([S+]([O-])Cc2cc(F)cc(F)c2)[nH]c2c(Br)ccc(Cl)c2c1=O (centres unmarked) [Compound 46, 3-acetyl-8-bromo-5-chloro-2-((3,5-difluorobenzyl)sulfinyl)quinolin-4(1H)-one] | > 2000 nM
1400 nM | > 2000 nM | 1720 nM | 1080 nM | 1440 nM | 1180 nM | 1670 nM | 1050 nM | 1240 nM | 1380 nM | > 10000 nM | 1140 nM | > 2000 nM | > 2000 nM | 910 nM | 1770 nM | > 2000 nM | 1420 nM | > 10000 nM | CC(=O)c1c([S+]([O-])Cc2ccc(F)cc2F)[nH]c2c(Br)ccc(Cl)c2c1=O (centres unmarked) [Compound 29, 3-acetyl-8-bromo-5-chloro-2-((2,4-difluorobenzyl)sulfinyl)quinolin-4(1H)-one] | > 2000 nM
1560 nM | > 2000 nM | 1990 nM | 1010 nM | 1380 nM | 1150 nM | > 2000 nM | > 2000 nM | 1060 nM | 1500 nM | > 10000 nM | 1280 nM | > 2000 nM | > 2000 nM | 920 nM | 1810 nM | > 2000 nM | 1450 nM | > 10000 nM | COc1cc(C[S+]([O-])c2[nH]c3c(Br)ccc(Cl)c3c(=O)c2C(C)=O)cc(OC)c1 (centres unmarked) [Compound 59, 3-acetyl-8-bromo-5-chloro-2-((3,5-dimethoxybenzyl)sulfinyl)quinolin-4(1H)-one] | 1030 nM
1120 nM | 1600 nM | 1300 nM | 780 nM | 1050 nM | 940 nM | 1370 nM | 970 nM | 920 nM | 1180 nM | > 10000 nM | 1070 nM | 1790 nM | 1940 nM | 710 nM | 1540 nM | > 2000 nM | 1210 nM | > 10000 nM | CC(=O)c1c([S+]([O-])Cc2ccc(C(F)(F)F)o2)[nH]c2c(Br)ccc(Cl)c2c1=O (centres unmarked) [Compound 72, 3-acetyl-8-bromo-5-chloro-2-(((5-(trifluoromethyl)furan-2-yl)methyl)sulfinyl)quinolin-4(1H)-one] | 720 nM
680 nM | 1660 nM | 950 nM | 850 nM | 1440 nM | 760 nM | 1070 nM | 630 nM | 1460 nM | 1920 nM | > 10000 nM | > 2000 nM | > 2000 nM | > 2000 nM | 770 nM | 1620 nM | 1730 nM |  | > 10000 nM | CC(=O)c1c([S+]([O-])Cc2cc(C)on2)[nH]c2c(Br)ccc(Cl)c2c1=O (centres unmarked) [Compound 51, 3-acetyl-8-bromo-5-chloro-2-(((5-methylisoxazol-3-yl)methyl)sulfinyl)quinolin-4(1H)-one] | 580 nM
> 2000 nM | 1660 nM | > 2000 nM | 1200 nM | 1620 nM | 1350 nM | > 2000 nM | > 2000 nM | 1370 nM | > 2000 nM | > 10000 nM | > 2000 nM | > 2000 nM | > 2000 nM | 1220 nM | > 2000 nM | > 2000 nM | 1670 nM | > 10000 nM | CC(=O)c1c([S+]([O-])Cc2cc(F)cc(S(F)(F)(F)(F)F)c2)[nH]c2c(Br)ccc(Cl)c2c1=O (centres unmarked) [Compound 76, 3-acetyl-8-bromo-5-chloro-2-((3-fluoro-5-(pentafluoro--sulfanyl)benzyl)sulfinyl)quinolin-4(1H)-one] | 1570 nM
> 2000 nM | 1220 nM | > 2000 nM | 1310 nM | 1250 nM | 1750 nM | 1170 nM | > 2000 nM | 1570 nM | > 2000 nM | > 2000 nM | 1350 nM | > 2000 nM | > 2000 nM | 1250 nM | 1540 nM | > 2000 nM | 1450 nM | > 10000 nM | CC(=O)c1c([S+]([O-])Cc2ccc(I)cc2)[nH]c2c(Cl)ccc(Cl)c2c1=O (centres unmarked) [Compound 83, 3-acetyl-5,8-dichloro-2-((4-iodobenzyl)sulfinyl)quinolin-4(1H)-one] | 1750 nM

SMILES | IC50 [1, 3] | IC50 [1, 4] | IC50 [1, 5] | IC50 [1, 6] | IC50 [1, 7] | IC50 [1, 8] | IC50 [1, 9] | IC50 [1, 10] | IC50 (melanoma cell lines) | IC50 (brain cancer cell lines; [11]) | IC50 (brain cancer cell lines; [12]) | IC50 (brain cancer cell lines; [13]) | IC50 [2, 14] | IC50 [2, 15] | IC50 [2, 16] | IC50 [2, 17] | IC50 [2, 18] | IC50 [2, 19] | IC50 [2, 20] | IC50 ([2]; MRC-5 cells, read-out: IC50)
CC(=O)c1c([S+]([O-])Cc2ccc([N+](=O)[O-])cc2)[nH]c2c(Br)ccc(Cl)c2c1=O (centres unmarked) [Compound 33, 3-acetyl-8-bromo-5-chloro-2-((4-nitrobenzyl)sulfinyl)quinolin-4(1H)-one] | 1280 nM | > 2000 nM | 1770 nM | 1030 nM | 1440 nM | 970 nM | > 2000 nM | > 2000 nM | 1130 nM | > 2000 nM | > 10000 nM | 1110 nM | > 2000 nM | > 2000 nM | 860 nM | 1780 nM | > 2000 nM | 1380 nM | > 10000 nM | 820 nM
